# In patent publication US20070066682A1, “Arylalkylamine vanadium (V) salts for the treatment and/or prevention of Diabetes mellitus” (priority 2005, published 2007):
# Experiments:
# isolated rat adipocytes = experiment: Glucose transport (2-deoxyglucose uptake) in isolated rat adipocytes; format: cell-based; conditions: isolated rat adipocytes; for stimulation of glucose transport in the presence of semicarbazide: 1 mM semicarbazide; for stimulation of glucose transport (2-DG uptake): 45 min incubation
# Experimental: In order to determine whether salts formed by vanadate and benzylamine could produce an insulin mimetic effect, the effect of increasing concentrations of hexaquis(benzylammonium) decavanadate on glucose transport activity in isolated rat adipocytes was tested. […] In similar assays, the activity of hexaquis(benzylammonium) decavanadate, pentaquis(benzylammonium) decavanadate and tetraquis(benzylammonium) decavanadate on glucose transport activity in isolated rat adipocytes were analyzed.
# To determine the possible insulin mimetic effect of certain vanadium arylalkylamines, the capacity of these compounds to enhance glucose transport in isolated rat adipocytes was tested. Adipose cells from Wistar rats were incubated for 45 minutes in basal conditions (Basal) or in the presence of 100 nM insulin (Ins), and different concentrations of. hexaquis(benzylammonium) decavanadate (B6V10) in the absence or in the presence of 1 mM semicarbazide (SCZ). Subsequently, 2-DG transport was measured over a 5 min. interval.
# The effects of the three tested compounds (B6V10, B5V10 and B4V10) were compared. Adipose cells from Wistar rats were incubated for 45 minutes in basal conditions (Basal) or in the presence of 100 nM insulin (Ins), and different concentrations of. decavanadate (V10), hexaquis(benzylammonium) decavanadate (B6V10), pentaquis(benzylammonium) decavanadate (B5V10) or tetraquis(benzylammonium) decavanadate (B4V10) in the absence or in the presence of 1 mM semicarbazide (SCZ). 2-DG transport was measured over 5 min. intervals. […]
# (§1) The effects of incubation with semicarbazide or phosphatidylinositol 3-kinase inhibitors were also investigated. Adipose cells were incubated with B6V10 (25 μM, 45 min) in the absence or presence of wortmannin (2 μM, 45 min), LY294002 (10 μM, 45 min) or semicarbazide (1 mM, 45 min) and thereafter 2-deoxyglucose uptake was determined during 5 min.
# [1] = test system: streptozotocin-induced diabetic rat with undetectable circulating insulin; experiment: Subcutaneous treatment of streptozotocin (100 mg/kg) diabetic rats with undetectable circulating insulin; format: in vivo; conditions: 2.5 μmol/kg subcutaneous minipumps, STZ 100 mg/kg
# Experimental: (§2) Male Wistar rats weighting 180-220 g were purchased from Harlan (Interfauna Ibèrica S.A., Spain). Diabetes was induced by a single intraperitoneal injection of a freshly prepared solution of streptozotocin (in some studies the dose was 45 mg/kg body weight and in some others 100 mg/kg body weight dissolved in 50 mM citrate buffer, pH 4.5). Only diabetic animals with glycemia above 300 mg/dl were used. The animals were housed in animal quarters at 22° C., with a 12 h light/12 h dark cycle and were fed ad libitum. All procedures used were approved by the animal ethical committee of the University of Barcelona, Spain. Male mice C57 BL/Ks bearing the db/db mutation (Jackson Laboratories, Bar Harbor, Me.) were purchased from Harlan France (Gannat, France). C57BL/6J male mice were assigned for 16 weeks to very high-fat diet containing (in kcal): 72% from fat, 28% from proteins and <1% from carbohydrates (Burcelin et al., 2002, Am. J. Physiol. Endocrinol. Metab 282: E834-E842).
# (§3) In glucose tolerance tests and in chronic treatments, circulating glucose concentrations were determined by a rapid glucose analyser (Accutrend® Sensor Comfort, Roche, Basel. Switzerland). Plasma insulin (IRI) concentration was determined by ELISA method using a kit obtained from Crystal Chem Inc. (Downers Grove, Ill.). Plasma triglycerides (Biosystems, Barcelona, Spain) and NEFAS (Wako Chemicals, Neuss, Germany) were determined with standard […] methods.
# To this end, rats were made diabetic by the injection of a large dose of streptozotocin (100 mg/kg) that eliminates β-pancreatic insulin content. […] These streptozotocin-induced diabetic rats were subcutaneously treated with B6V10 (2.5 μmol/kg) (solid squares, FIG. 9A) delivered by osmotic minipumps or left untreated (solid circles, FIG. 9A). Sham-operated nondiabetic rats were also untreated (solid triangles, FIG. 9A).
# The concentration of circulating glucose under these conditions was also assayed. After 28 days of treating diabetic rats with hexaquis(benzylammonium) decavanadate (2.5 μmol/kg) (wide striped bars, FIG. 9B), or with decavanadate (close striped bars, FIG. 9B) delivered by osmotic minipumps, plasma insulin and glucose were measured. Untreated diabetic (solid bars, FIG. 9B) or nondiabetic rats (open bars, FIG. 9B) were similarly assayed as controls.
# [2] = test system: streptozotocin-induced diabetic rats; experiment: Chronic oral treatment of streptozotocin (45 mg/kg) diabetic rats, glycemia; format: in vivo, rat; conditions: for glycemia during chronic oral treatment: daily oral, 17 days (5 then 10 μmol/kg/day), STZ 45 mg/kg rats
# Experimental: as §2
# (§4) Osmotic minipumps delivering B6V10 (2.5 μmol/kg body wt/day) or decavanadate (2.5 μmol/kg body wt/day) were implanted subcutaneously in diabetic rats anaesthetised by ketamine hydrochloride (95 mg/kg) and xylasine (10 mg/kg). […] Glycemia was measured on arterio-venous blood collected from the tail vessels at 09:00 am for two weeks, before the administration of vanadate. Insulin concentrations were determined before and after treatment. In another set of experiments, B6V10 was orally administered at a single dose of 5 μmol/kg/day during the first week and 10 μmol/kg/day during 2 additional weeks by gastric gavage. A control group received the corresponding decavanadate salt in the absence of benzylamine. At the end of the treatment, animals were sacrificed and the liver, fat pad, heart and lung were kept at −80° C. and the plasma at −20° C. until their use for in vitro analysis.
# as §3
# The effect of the oral administration of hexaquis(benzylammonium) decavanadate on glycemia from diabetic rats was also studied. Diabetes was induced in rats by intravenous administration of streptozotocin, and subsequently, a hexaquis(benzylammonium) decavanadate or sodium decavanadate unique dose was administered to the rats. […] After seven days of treatment, the dose was increased at 10 μmol/kg/day which was maintained for an additional ten days. […] Thus, glycemia in sodium decavanadate treated rats was approximately 450 mg/dl and glycemia of hexaquis(benzylammonium) decavanadate treated rats was approximately 250 mg/dl.
# (§5) Chronic in vivo efficacy of B6V10 was evaluated in streptozotocin-induced diabetic rats and in db/db mice. Streptozotocin-induced (45 mg/kg) diabetic rats were subcutaneously treated with hexaquis(benzylammonium) decavanadate (2.5 μmol/kg) (B6V10, solid squares, FIG. 8A) or with decavanadate (2.5 μmol/kg) (V10, open circles, FIG. 8A) delivered subcutaneously by osmotic minipumps implanted in the dorsal region. Diabetic rats were also sham-operated (untreated, solid diamonds, FIG. 8A). […] These experiments were repeated using an oral administration protocol. Streptozotocin-induced (45 mg/kg) diabetic rats were orally treated with hexaquis(benzylammonium) decavanadate (5 μmol/kg from day 0 to day 7 and 10 μmol/kg/day from day 7 to day 17) (B6V10, solid squares, FIG. 8B) or received decavanadate (10 μmol/kg) (V10, open circles, FIG. 8B). Nondiabetic rats were also untreated (solid triangles, FIG. 8B).
# [3] = test system: streptozotocin-induced diabetic rats; experiment: Chronic subcutaneous (osmotic minipump) treatment of streptozotocin (45 mg/kg) diabetic rats, glycemia; format: in vivo, rat; conditions: 2.5 μmol/kg/day by osmotic minipumps, about two weeks, STZ 45 mg/kg rats
# Experimental: as §2, §4, §3
# The effect of chronic administration of hexaquis(benzylammonium) decavanadate on glycemia from diabetic rats was determined. Thus, diabetes was induced in rats by intravenous administration of streptozotocin, which destroys the β-pancreatic cells that produce insulin.
# as §5, with “Nondiabetic rats were also untreated (solid triangles, FIG. 8B).” left out
# protein kinase B = experiment: Protein kinase B phosphorylation in isolated rat adipocytes; format: cell-based; conditions: 25 μM, rat adipocytes
# Experimental: Isolated fat cells were disrupted for total membrane preparation by hypo-osmotic lysis in a 20 mM HES buffer and an antiprotease and antiphosphatase cocktail as reported by Abella et al. (2003, Diabetes 52: 1004-1013). Protein concentrations were determined by the Bradford method (Bradford, 1976, Anal. Biochem. 72: 248-254) with gamma-globulin as protein concentration standard. Immunoprecipitation and immunoblot assays were performed as previously described by Abella et al. (2004, Id.) with the use of a monoclonal antiphosphotyrosine antibody for the immunoprecipitation and an anti-insulin receptor antibody for immunoblotting, respectively. SDS-polyacrylamide gel electrophoresis was performed on membrane proteins following conventional procedures. Proteins were transferred to Immobilon and immunoblotting was performed as reported by Castello et al. (1994, J. Biol. Chem. 269: 5905-5912).
# The mechanism of action of B6V10 was investigated in isolated rat adipocytes. Adipose cells from Wistar rats were incubated for different times in the presence of 25 μM hexaquis(benzylammonium) decavanadate (B6V10). Cells were also incubated in the presence of insulin (100 nM, 45 min), decavanadate (25 μM, 45 min) or semicarbazide (1 mM, 45 min). Subsequently, 2-deoxyglucose uptake (results shown in FIG. 7A), tyrosine phosphorylation of insulin receptor (FIG. 7B), phospho-Thr^308-protein kinase B (FIG. 7C) and phospho-Ser^473-protein kinase B (FIG. 7D) was measured. […] The phosphorylation of protein kinase B induced by B6V10 was parallel to activation of glucose transport (FIG. 7C and 7D).
# as §1
Substance,stimulation of glucose transport in the presence of semicarbazide (isolated rat adipocytes; dihydrate),"stimulation of glucose transport in the presence of semicarbazide (isolated rat adipocytes; listed as tetraquis(benzylammonium) decavanadate, Dihydrate)",stimulation of glucose transport (2-DG uptake) (isolated rat adipocytes),"stimulation of glucose transport in the presence of semicarbazide (isolated rat adipocytes; listed as pentaquis(benzylammonium) decavanadate, dihydrate)",glycemia in diabetic rats with undetectable insulin [1],glycemia during chronic oral treatment [2],glycemia during chronic oral treatment ([2]; listed as sodium decavanadate),"glycemia ([2]; oral treatment, after dose increase to 10 μmol/kg/day)",glycemia during chronic subcutaneous treatment [3],glycemia during chronic subcutaneous treatment ([3]; listed as sodium decavanadate),protein kinase B phosphorylation (protein kinase B)
Tetraquis(Benzylammonium) Decavanadate (V) Dihydrate [Entry B4V10],blocked in the presence of semicarbazide,this effect was inhibited,pronounced stimulation on glucose transport,,,,,,,,
pentaquis(benzylammonium) decavanadate (V) dihydrate [Entry B5V10],blocked in the presence of semicarbazide,,pronounced stimulation on glucose transport,this effect was inhibited,,,,,,,
"sodium decavanadate [Entry V10, reference compound]",,,did not stimulate glucose transport,,did not show any change in circulating glucose,did not alter glycemia,not affected substantially,approximately 450 mg/dl,did not alter glycemia,did not modify substantially its glycemia,not observed
